These results are taken from US20220073471A1 (JIANGSU HENGRUI MEDICINE CO., LTD., priority 2019, published 2022).

Data set [1] has as its target T1, Nav1.8 ion channel stably expressed on HEK293 cells (Homo sapiens, UniProt Q9Y5Y9).
T1 construct: expressed in transfected cells; host or cells: HEK293
Description: Inhibitory activity on Nav1.8, manual patch clamp. Type of data set: cell-based. Particulars: resting, clamped at -80 mV, 1 μM TTX, read-out: IC50 on inhibiting the Nav1.8 channel activity. An excerpt:
The purpose of the experiment is to investigate the effect of the compounds on Nav1.8 ion channel in an in vitro experiment, wherein the Nav1.8 ion channel is stably expressed on HEK293 cells. After the Nav1.8 current becomes stable, the Nav1.8 currents before and after the administration of the compound are compared so as to obtain the effect of the compound on the Nav1.8 ion channel.
Except for NaOH and KOH used for acid titration and base titration, all the compounds used for formulating the extracellular fluid and intracellular fluid were purchased from Sigma (St. Louis, Mo.). Extracellular fluid (mM): NaCl, 137; KCl, 4; CaCl2), 1.8; MgCl2, 1; HEPES, 10; glucose, 10; pH 7.4 (NaOH titration). Intracellular fluid (mM): aspartic acid, 140; MgCl2, 2; EGTA, 11; HEPES, 10; pH 7.2 (CsOH titration). All solutions of test compound and control compound contained 1 μM TTX.
The test compound was dissolved in dimethyl sulfoxide (DMSO) at a stock concentration of 9 mM. The stock solution of the test compound was dissolved in the extracellular fluid on the day of the test and formulated into the required concentration.
1) The compound was formulated into solutions with specified concentrations, the solutions were added to the pipelines respectively in order from low to high concentration, and the pipelines were marked.
2) The cell was transferred to the perfusion tank. A positive pressure was applied to the electrode. The tip of the electrode touched the cell. The three-way valve of the air extracting device was adjusted to a three-way state. A negative pressure was applied to the electrode, so that a high-resistance seal was formed between the electrode and the cell.
The negative pressure was applied continuously, thereby causing the cell membrane to rupture and forming a current path.
3) After the current for rupturing the cell membrane became stable, perfusion of different concentrations was carried out in sequence. Once the current was stable for at least one minute, perfusion of the next concentration was carried out.
4) The perfusion tank was cleaned. The perfusion tank was rinsed with the drug solutions in order from high to low concentration, and the rinse duration for each concentration of drug solution was 20 seconds. The perfusion tank was finally rinsed with the extracellular fluid for 1 minute.
The cell was clamped at −80 mV. The cell was depolarized to 10 mV with a square wave lasting 10 milliseconds to obtain the Nav1.8 current. This procedure was repeated every 5 seconds. The maximum current caused by the square wave was measured. After the current became stable, the test compound was perfused. After the response became stable, the blocking intensity was calculated.
The data was stored in the computer system for analysis. Data collection and analysis were carried out by pCLAMP 10 (Molecular Devices, Union City, Calif.), and the analysis results were reviewed by the administrator. Stable current means that the current changes within a limited range over time. The magnitude of stable current was used to calculate the effect of the compound at the concentration.

The nature of data set [2]: Pharmacokinetics assay in rats after intragastrical administration. In kind it is in vivo. Particulars: both sexes, Sprague-Dawley (SD), rat, plasma, po, 2 mg/kg; for Vd/F: read-out: Apparent distribution volume Vz/F; for AUC: read-out: Area under curve AUC; for bioavailability: read-out: Bioavailability F; for CL/F: read-out: Clearance CL/F; for half-life: read-out: Half-life T½ (converted); for Cmax: read-out: Plasma concentration Cmax; for MRT: read-out: Residence time MRT. The procedure: Rats were used as test animals. The drug concentration in plasma at different time points was determined by LC/MS/MS method after intragastrical administration of the compounds of Example 2, Example 11, Example 12, Example 15, Example 31 and Example 33 to rats. The pharmacokinetic behavior of the compounds of the present disclosure was studied and evaluated in rats.
Twenty-four healthy adult SD rats (half male and half female, equally divided into six groups, four rats per group) were purchased from Shanghai Jiesijie Laboratory Animal Co., LTD.
A certain amount of the test compound was weighed, to which 5% of DMSO, 5% of tween 80 and 90% of normal saline were added to prepare a 0.2 mg/mL colorless, clear and transparent solution.
After an overnight fast, SD rats were intragastrically administered the test compound at an administration dose of 2.0 mg/kg and an administration volume of 10.0 mL/kg.
The rats were intragastrically administered the compounds of Example 2, Example 11, Example 12, Example 15, Example 31 and Example 33. 0.2 ml of blood was taken from the orbit before the administration and at 0.5, 1.0, 2.0, 4.0, 6.0, 8.0, 11.0 and 24.0 hours after the administration. The samples were stored in heparinized tubes, and centrifuged for 10 minutes at 10000 rpm and 4° C. to separate the blood plasma. The plasma samples were stored at −20° C. The rats were fed 2 hours after the administration.
The content of the test compound in the plasma of rats after intragastrical administration of the test compound at different concentrations was determined: 25 μL of rat plasma at each time point after the administration was taken, to which 30 μL of the internal standard solution and 175 μL of acetonitrile were added. The resulting solution was vortex-mixed for 5 minutes, and centrifuged for 10 minutes (3700 rpm). 0.5 μL of the supernatant was taken from the plasma samples for LC/MS/MS analysis.

T1 sequence (Q9Y5Y9 whole entry): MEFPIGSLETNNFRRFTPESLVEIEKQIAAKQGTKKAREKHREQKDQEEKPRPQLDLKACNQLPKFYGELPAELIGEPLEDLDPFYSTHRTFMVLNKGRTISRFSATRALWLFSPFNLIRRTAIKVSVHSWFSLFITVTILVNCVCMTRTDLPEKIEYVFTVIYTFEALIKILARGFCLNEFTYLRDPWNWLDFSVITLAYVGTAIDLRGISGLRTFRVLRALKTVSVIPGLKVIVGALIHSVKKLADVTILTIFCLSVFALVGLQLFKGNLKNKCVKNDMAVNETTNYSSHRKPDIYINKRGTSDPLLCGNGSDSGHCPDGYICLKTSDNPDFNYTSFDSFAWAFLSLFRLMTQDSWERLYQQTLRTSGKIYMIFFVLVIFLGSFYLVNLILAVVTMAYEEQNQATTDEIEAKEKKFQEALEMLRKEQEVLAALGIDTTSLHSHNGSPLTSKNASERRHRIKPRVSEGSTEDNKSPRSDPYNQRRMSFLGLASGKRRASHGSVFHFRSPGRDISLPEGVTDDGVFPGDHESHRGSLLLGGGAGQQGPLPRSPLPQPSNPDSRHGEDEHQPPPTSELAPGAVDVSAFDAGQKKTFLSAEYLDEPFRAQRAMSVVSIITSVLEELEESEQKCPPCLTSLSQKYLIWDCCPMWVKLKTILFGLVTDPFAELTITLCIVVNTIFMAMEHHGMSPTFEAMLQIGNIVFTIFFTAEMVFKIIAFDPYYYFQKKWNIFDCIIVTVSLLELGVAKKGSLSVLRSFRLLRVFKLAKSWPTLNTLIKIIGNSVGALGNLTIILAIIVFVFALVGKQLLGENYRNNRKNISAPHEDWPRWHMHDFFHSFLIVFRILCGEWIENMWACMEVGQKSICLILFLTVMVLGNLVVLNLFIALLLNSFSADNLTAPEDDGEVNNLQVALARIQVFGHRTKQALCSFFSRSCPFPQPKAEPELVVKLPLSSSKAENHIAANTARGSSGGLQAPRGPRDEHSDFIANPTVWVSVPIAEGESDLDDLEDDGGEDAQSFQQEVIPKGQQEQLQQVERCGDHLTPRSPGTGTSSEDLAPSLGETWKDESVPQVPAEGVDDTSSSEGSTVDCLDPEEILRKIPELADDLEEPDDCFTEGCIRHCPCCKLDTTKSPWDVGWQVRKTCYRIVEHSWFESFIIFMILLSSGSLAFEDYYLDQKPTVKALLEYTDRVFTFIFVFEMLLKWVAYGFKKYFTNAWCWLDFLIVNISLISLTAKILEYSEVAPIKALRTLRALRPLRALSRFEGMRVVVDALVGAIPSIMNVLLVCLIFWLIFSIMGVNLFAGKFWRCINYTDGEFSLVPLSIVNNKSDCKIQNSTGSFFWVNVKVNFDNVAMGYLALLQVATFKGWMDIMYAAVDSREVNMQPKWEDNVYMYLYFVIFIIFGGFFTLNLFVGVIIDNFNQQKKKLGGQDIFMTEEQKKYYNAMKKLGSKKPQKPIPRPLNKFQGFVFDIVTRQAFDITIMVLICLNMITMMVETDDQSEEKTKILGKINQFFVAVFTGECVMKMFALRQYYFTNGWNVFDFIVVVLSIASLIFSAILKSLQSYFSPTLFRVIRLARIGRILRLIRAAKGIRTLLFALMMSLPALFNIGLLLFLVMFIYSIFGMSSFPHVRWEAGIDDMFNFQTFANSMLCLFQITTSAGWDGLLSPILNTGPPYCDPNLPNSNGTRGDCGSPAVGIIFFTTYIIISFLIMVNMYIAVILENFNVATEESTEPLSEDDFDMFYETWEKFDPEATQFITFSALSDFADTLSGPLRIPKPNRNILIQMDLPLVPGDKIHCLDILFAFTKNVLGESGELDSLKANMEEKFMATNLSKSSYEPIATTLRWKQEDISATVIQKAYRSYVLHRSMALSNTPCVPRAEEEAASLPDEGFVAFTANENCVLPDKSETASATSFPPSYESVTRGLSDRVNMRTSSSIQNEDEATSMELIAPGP

For the molecule `Cc1cc(F)ccc1Oc1cc(C(F)(F)F)c(Cl)cc1C(=O)Nc1cn[nH]c(=O)c1` [Example 2, 5-Chloro-2-(4-fluoro-2-methylphenoxy)-N-(6-oxo-1,6-dihydropyridazin-4-yl)-4-(trifluoromethyl)benzamide], the IC50 (usually the concentration at which inhibition is half-maximal) in data set [1] amounted to 1.3 nM. In addition, in data set [2], the Vd/F was 4.71 ± 1.29 L/kg, the area under the curve (AUC) (usually concentration integrated over time) worked out at 5960 ± 4280 ng·h/mL, the bioavailability amounted to 149% and the CL/F amounted to 6.24 ± 6.29 mL/min/kg. In data set [2], the half-life (commonly how long it takes for the measured level to halve) was 47 ± 54.6 h; the Cmax is 399 ± 153 ng/mL; the mean residence time MRT – broadly, the average time that molecules of a dose stay in the body – was determined as 68.2 ± 78.3 h.
As to `COc1cc(F)ccc1Oc1cc(C(F)(F)F)c(Cl)cc1C(=O)Nc1cn[nH]c(=O)c1` [Example 11, 5-Chloro-2-(4-fluoro-2-methoxyphenoxy)-N-(6-oxo-1,6-dihydropyridazin-4-yl)-4-(trifluoromethyl)benzamide], the IC50 in data set [1] came to 1.3 nM. Besides, in data set [2], the Vd/F was 5.33 ± 0.72 L/kg, the AUC is 1230 ± 621 ng·h/mL, the bioavailability is 98% and the CL/F came out at 32.3 ± 15.2 mL/min/kg. Moreover, in data set [2], the half-life is 2.3 ± 1.14 h and the Cmax stood at 218 ± 103 ng/mL.
With `O=C(Nc1cn[nH]c(=O)c1)c1cc(Cl)c(C(F)(F)F)cc1Oc1ccc(F)cc1OC1CC1` [Example 12, 5-Chloro-2-(2-cyclopropoxy-4-fluorophenoxy)-N-(6-oxo-1,6-dihydropyridazin-4-yl)-4-(trifluoromethyl)benzamide], in data set [1], the 50% inhibitory concentration (IC50) amounted to 0.26 nM. In data set [2], the Vd/F was 4.17 ± 0.587 L/kg, the exposure (AUC) came to 5980 ± 1130 ng·h/mL, the bioavailability was 111% and the CL/F came to 4.3 ± 1.65 mL/min/kg. In data set [2], the half-life was 13.2 ± 7.8 h, the Cmax stood at 435 ± 64 ng/mL and the mean residence time MRT amounted to 19.8 ± 10.4 h.
As for `O=C(Nc1cn[nH]c(=O)c1)c1cc(Cl)c(C(F)(F)F)cc1Oc1ccc(F)cc1OC(F)(F)F` [Example 15, 5-Chloro-2-(4-fluoro-2-(trifluoromethoxy)phenoxy)-N-(6-oxo-1,6-dihydropyridazin-4-yl)-4-(trifluoromethyl)benzamide], in data set [1], the 50% inhibitory concentration (IC50) was 4.7 nM. In data set [2], the Vd/F was 7.15 ± 0.682 L/kg, the area under the curve (AUC) stood at 5690 ± 552 ng·h/mL, the bioavailability worked out at 94% and the CL/F turned out to be 1.46 ± 0.11 mL/min/kg. For the same molecule, in data set [2], the half-life is 56.7 ± 6.6 h, the Cmax came out at 295 ± 44 ng/mL and the mean residence time (MRT) came to 82.4 ± 10.2 h.
Regarding `O=C(Nc1cn[nH]c(=O)c1)c1cc(Cl)c(C(F)(F)F)cc1Oc1ccc(F)cc1C1CC1` [Example 31, 5-Chloro-2-(2-cyclopropyl-4-fluorophenoxy)-N-(6-oxo-1,6-dihydropyridazin-4-yl)-4-(trifluoromethyl)benzamide], the 50% inhibitory concentration (IC50) in data set [1] is 0.94 nM. In data set [2], the Vd/F was 5.44 ± 0.705 L/kg, the area under the curve (AUC) came out at 5620 ± 1230 ng·h/mL, the bioavailability came out at 66% and the CL/F stood at 3.77 ± 2.7 mL/min/kg. Also, in data set [2], the half-life is 33.3 ± 34.8 h, the Cmax is 360 ± 65 ng/mL and the mean residence time (MRT) was 48.3 ± 50.3 h.
Regarding `Cc1cc(F)ccc1Oc1cc(C(F)(F)F)c(Br)cc1C(=O)Nc1cn[nH]c(=O)c1` [Example 33, 5-Bromo-2-(4-fluoro-2-methylphenoxy)-N-(6-oxo-1,6-dihydropyridazin-4-yl)-4-(trifluoromethyl)benzamide], the concentration for half-maximal inhibition (IC50) in data set [1] was 0.86 nM. Besides, in data set [2], the Vd/F came out at 3.99 ± 0.788 L/kg, the area under the curve (AUC) is 5550 ± 3020 ng·h/mL, the bioavailability came to 99% and the CL/F came to 6.4 ± 5.57 mL/min/kg. Further, in data set [2], the half-life was 18.6 ± 17.5 h, the Cmax was found to be 382 ± 88 ng/mL and the mean residence time (MRT) worked out at 27.7 ± 24.2 h.
In the case of `[2H]C([2H])([2H])Oc1cc(F)ccc1Oc1cc(C(F)(F)F)c(Cl)cc1C(=O)Nc1cn[nH]c(=O)c1` [Example 35, 5-Chloro-2-(4-fluoro-2-(methoxy-d3)phenoxy)-N-(6-oxo-1,6-dihydropyridazin-4-yl)-4-(trifluoromethyl)benzamide], the IC50 in data set [1] is 0.54 nM. Further, in data set [2], the Vd/F is 5.01 ± 0.875 L/kg, the exposure (AUC) stood at 4330 ± 910 ng·h/mL, the bioavailability was determined as 107% and the CL/F is 7.93 ± 1.47 mL/min/kg. Also, in data set [2], the half-life is 7.5 ± 1.92 h, the Cmax worked out at 392 ± 43 ng/mL and the MRT stood at 10.6 ± 2.3 h.
Regarding `CC(C)Oc1cc(F)ccc1Oc1cc(C(F)(F)F)c(Cl)cc1C(=O)Nc1cn[nH]c(=O)c1` [Example 42], the IC50 in data set [1] was 2.98 nM.
Regarding `O=C(Nc1cn[nH]c(=O)c1)c1cc(Cl)c(C(F)(F)F)cc1Oc1ccc(F)cc1Br` [Example 43, 2-(2-Bromo-4-fluorophenoxy)-5-chloro-N-(6-oxo-1,6-dihydropyridazin-4-yl)-4-(trifluoromethyl)benzamide], the concentration for half-maximal inhibition (IC50) in data set [1] is 3.36 nM.
On to `[2H]C([2H])([2H])c1cc(F)ccc1Oc1cc(C(F)(F)F)c(Cl)cc1C(=O)Nc1cn[nH]c(=O)c1` [Example 44, 5-Chloro-2-(4-fluoro-2-(methyl-d3)phenoxy)-N-(6-oxo-1,6-dihydropyridazin-4-yl)-4-(trifluoromethyl)benzamide], for which the IC50 in data set [1] amounted to 4.04 nM.
With `O=C(Nc1cn[nH]c(=O)c1)c1cc(Cl)c(C(F)(F)F)cc1Oc1ccc(F)cc1Cl` [Example 45, 5-Chloro-2-(2-chloro-4-fluorophenoxy)-N-(6-oxo-1,6-dihydropyridazin-4-yl)-4-(trifluoromethyl)benzamide], the IC50 in data set [1] is 5.08 nM.
In the case of `O=C(Nc1cn[nH]c(=O)c1)c1cc(Cl)c(C(F)(F)F)cc1Oc1ccc(F)cc1F` [Example 46, 5-Chloro-2-(2,4-difluorophenoxy)-N-(6-oxo-1,6-dihydropyridazin-4-yl)-4-(trifluoromethyl)benzamide], the 50% inhibitory concentration (IC50) in data set [1] was found to be 8.95 nM.
